Like-named read-outs stand apart in the source and are kept apart here. *1 amine or outer side, *2 acyl side, *3 side chain or, on linkers, in order; H or OH if unused. Where a SMILES comes first, the peptide text is derived from it. Bridges are numbered along the chain shown (N, C = ends). [ ]: non-standard residue; d: D form. The star is where a group is joined. X16 = NC(=O)[C@H](CCCCNC(=O)CN1CCN2CCN3CCN(CC1)CC(=O)[O][Lu]([O]C(=O)C2)[O]C(=O)C3)NC(=O)CCC(=O)NCCCOCCOCCOCCCN*; X11 = O=C(CN1CCN2CCN3CCN(CC1)CC(=O)[O][In]([O]C(=O)C2)[O]C(=O)C3)NCCCOCCOCCOCCCN*; X13 = O=C(CN1CCN2CCN3CCN(CC1)CC(=O)[O][Lu]([O]C(=O)C2)[O]C(=O)C3)NCCCOCCOCCOCCCN*; DOTA(Lu) = O=C1CN2CCN3CCN(CC(=O)*)CCN(CC2)CC(=O)[O][Lu]([O]1)[O]C(=O)C3; Trp(5-Cl) = N[C@@H](Cc1c[nH]c2ccc(Cl)cc12)C(=O)O; mXylylene = c1cc(C[*:1])cc(C[*:2])c1; X6 = c1cc(CSCCN[*:2])nc(C[*:1])c1; X7 = c1cc(CSCCN[*:2])cc(C[*:1])c1; Hyp = O=C(O)[C@@H]1C[C@@H](O)CN1; X1 = O=C(CN1CCC(N[*:1])CC1)[*:2]; Suc = O=C(CCC(=O)[*:2])[*:1]; αMeS = C[C@](N)(CO)C(=O)O; Thp = NC1(C(=O)O)CCOCC1; Aib = CC(C)(N)C(=O)O; Sar = CNCC(=O)O

The experiment addresses T1, GIPR (CHO-K1-hGIPR cells) (Homo sapiens, UniProt P48546).
T1 construct: host or cells: CHO-K1
T1 sequence (P48546 22-466): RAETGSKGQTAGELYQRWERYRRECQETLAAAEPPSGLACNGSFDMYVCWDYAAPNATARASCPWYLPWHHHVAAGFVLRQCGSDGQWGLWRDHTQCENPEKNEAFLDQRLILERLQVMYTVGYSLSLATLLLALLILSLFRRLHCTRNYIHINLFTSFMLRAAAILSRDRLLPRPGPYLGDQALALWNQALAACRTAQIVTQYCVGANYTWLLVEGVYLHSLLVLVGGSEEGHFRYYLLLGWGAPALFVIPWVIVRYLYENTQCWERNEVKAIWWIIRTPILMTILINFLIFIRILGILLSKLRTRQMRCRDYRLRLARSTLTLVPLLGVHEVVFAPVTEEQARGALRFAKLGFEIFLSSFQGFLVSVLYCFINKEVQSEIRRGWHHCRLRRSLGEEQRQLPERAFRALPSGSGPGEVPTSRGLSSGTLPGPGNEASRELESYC
The experiment in a line: FACS binding assay. The following applies: competition with 20 nM GIP-057, 4° C., 1 hour. The procedure, abridged: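 Steps: detach CHO-K1-hGIPR cells (Accutase); wash in PBS/1% FCS; adjust to 500.000 cells per mL; wash ice-cold; incubate APC-streptavidin 1 μg/mL, 30 min on ice; wash twice; acquire on flow cytometer; fit MFI-concentration data with a four-parameter logistic model.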
On the technique in general: In flow cytometry, cells or beads pass a laser one at a time.

[1] abbreviates: read-out: pIC50 Category (converted).

In the case of `CC[C@H](C)[C@@H]1NC(=O)[C@H](CC(C)C)NC(=O)[C@](C)(CO)NC(=O)[C@@H](NC(=O)[C@@H](CC(C)C)NC(=O)[C@H](CCC(=O)O)NC(=O)[C@@H]2CCCN2C(=O)[C@H](Cc2c[nH]c3ccc(Cl)cc23)NC(=O)[C@H](Cc2c[nH]c3ccccc23)NC(=O)[C@H](CC(=O)O)NC(=O)CCC(=O)NCCCOCCOCCOCCCNC(=O)CN2CCN3CCN4CCN(CC2)CC(=O)[O][In]([O]C(=O)C3)[O]C(=O)C4)CSCc2cccc(c2)CSCCNC1=O` [GIP-149, InDOTA-Ttds-Asp-Trp-5Clw-Pro-Glu-leu-[Cys(3MeBn)-Ams-Leu-Ile-AET]] ({X11-Suc}-DW[Trp(5-Cl)]PE[dL]C[αMeS]LI; linker 7-C via X7), the IC50 under setting [1] was under 10 nM.
Still for that read-out and setting: in the case of `CC[C@H](C)[C@@H]1NC(=O)[C@H](CC(C)C)NC(=O)C2(CCOCC2)NC(=O)[C@@H](NC(=O)[C@@H](CC(C)C)NC(=O)[C@H](CCC(=O)O)NC(=O)[C@@H]2CCCN2C(=O)[C@H](Cc2c[nH]c3ccc(Cl)cc23)NC(=O)[C@H](Cc2c[nH]c3ccccc23)NC(=O)[C@H](CC(=O)O)NC(=O)CCC(=O)NCCCOCCOCCOCCCNC(=O)CN2CCN3CCN4CCN(CC2)CC(=O)[O][In]([O]C(=O)C3)[O]C(=O)C4)CSCc2cccc(c2)CSCCNC1=O` [GIP-150, InDOTA-Ttds-Asp-Trp-5Clw-Pro-Glu-leu-[Cys(3MeBn)-Thp-Leu-Ile-AET]] ({X11-Suc}-DW[Trp(5-Cl)]PE[dL]C[Thp]LI; linker 7-C via X7) it was under 10 nM; in that of `CC[C@H](C)[C@@H]1NC(=O)[C@H](CC(C)C)NC(=O)C(C)(C)NC(=O)[C@@H](NC(=O)[C@@H](CC(C)C)NC(=O)[C@H](CCC(=O)O)NC(=O)CN(C)C(=O)[C@H](Cc2c[nH]c3ccc(Cl)cc23)NC(=O)[C@H](Cc2c[nH]c3ccccc23)NC(=O)[C@H](CC(=O)O)NC(=O)CCC(=O)NCCCOCCOCCOCCCNC(=O)CN2CCN3CCN4CCN(CC2)CC(=O)[O][In]([O]C(=O)C3)[O]C(=O)C4)CSCc2cccc(c2)CSCCNC1=O` [GIP-152, InDOTA-Ttds-Asp-Trp-5Clw-Nmg-Glu-leu-[Cys(3MeBn)-Aib-Leu-Ile-AET]] ({X11-Suc}-DW[Trp(5-Cl)][Sar]E[dL]C[Aib]LI; linker 7-C via X7), under 10 nM.
For the compound `CC[C@H](C)[C@@H]1NC(=O)[C@H](CC(C)C)NC(=O)C(C)(C)NC(=O)[C@@H](NC(=O)[C@@H](CC(C)C)NC(=O)[C@H](CCC(=O)O)NC(=O)[C@@H]2CCCN2C(=O)[C@H](Cc2c[nH]c3ccc(Cl)cc23)NC(=O)[C@H](Cc2c[nH]c3ccccc23)NC(=O)[C@H](CC(=O)O)NC(=O)CCC(=O)NCCCOCCOCCOCCCNC(=O)CN2CCN3CCN4CCN(CC2)CC(=O)[O][In]([O]C(=O)C3)[O]C(=O)C4)CSCc2cccc(n2)CSCCNC1=O` [GIP-154, InDOTA-Ttds-Asp-Trp-5Clw-Pro-Glu-leu-[Cys(2Lut)-Aib-Leu-Ile-AET]] ({X11-Suc}-DW[Trp(5-Cl)]PE[dL]C[Aib]LI; linker 7-C via X6), the IC50 under setting [1] was under 10 nM.
Regarding `CC[C@H](C)[C@@H]1NC(=O)[C@H](CC(C)C)NC(=O)C(C)(C)NC(=O)[C@@H](NC(=O)[C@@H](CC(C)C)NC(=O)[C@H](CCC(=O)O)NC(=O)[C@@H]2CCCN2C(=O)[C@H](Cc2c[nH]c3ccc(Cl)cc23)NC(=O)[C@H](Cc2c[nH]c3ccccc23)NC(=O)[C@H](CC(=O)O)NC(C)=O)CSCc2cccc(c2)CSC[C@@H](C(=O)NCCCOCCOCCOCCCNC(=O)CCC(=O)N[C@@H](CCCCNC(=O)CN2CCN3CCN4CCN(CC2)CC(=O)[O][Lu]([O]C(=O)C3)[O]C(=O)C4)C(N)=O)NC1=O` [GIP-156, Ac-Asp-Trp-5Clw-Pro-Glu-leu-[Cys(3MeBn)-Aib-Leu-Ile-Cys]-Ttds-Lys(LuDOTA)-NH2] (Ac-DW[Trp(5-Cl)]PE[dL]C[Aib]LIC-X16; linker 7-11 via mXylylene), under “pIC50 Category”, the IC50 was under 10 nM.
Same read-out and setting: in the case of `CC[C@H](C)[C@@H]1NC(=O)[C@H](CC(C)C)NC(=O)[C@](C)(CO)NC(=O)[C@@H](NC(=O)[C@@H](CC(C)C)NC(=O)[C@H](CCC(=O)O)NC(=O)[C@@H]2CCCN2C(=O)[C@H](Cc2c[nH]c3ccc(Cl)cc23)NC(=O)[C@H](Cc2c[nH]c3ccccc23)NC(=O)[C@H](CC(=O)O)NC(=O)CCC(=O)NCCCOCCOCCOCCCNC(=O)CN2CCN3CCN4CCN(CC2)CC(=O)[O][Lu]([O]C(=O)C3)[O]C(=O)C4)CSCc2cccc(c2)CSCCNC1=O` [GIP-157, LuDOTA-Ttds-Asp-Trp-5Clw-Pro-Glu-leu-[Cys(3MeBn)-Ams-Leu-Ile-AET]] ({X13-Suc}-DW[Trp(5-Cl)]PE[dL]C[αMeS]LI; linker 7-C via X7) it was under 10 nM; in that of `CC[C@H](C)[C@@H]1NC(=O)[C@H](CC(C)C)NC(=O)C2(CCOCC2)NC(=O)[C@@H](NC(=O)[C@@H](CC(C)C)NC(=O)[C@H](CCC(=O)O)NC(=O)[C@@H]2CCCN2C(=O)[C@H](Cc2c[nH]c3ccc(Cl)cc23)NC(=O)[C@H](Cc2c[nH]c3ccccc23)NC(=O)[C@H](CC(=O)O)NC(=O)CCC(=O)NCCCOCCOCCOCCCNC(=O)CN2CCN3CCN4CCN(CC2)CC(=O)[O][Lu]([O]C(=O)C3)[O]C(=O)C4)CSCc2cccc(c2)CSCCNC1=O` [GIP-158, LuDOTA-Ttds-Asp-Trp-5Clw-Pro-Glu-leu-[Cys(3MeBn)-Thp-Leu-Ile-AET]] ({X13-Suc}-DW[Trp(5-Cl)]PE[dL]C[Thp]LI; linker 7-C via X7), under 10 nM.
Still for that read-out and setting: with `CC[C@H](C)[C@@H]1NC(=O)[C@H](CC(C)C)NC(=O)C(C)(C)NC(=O)[C@@H](NC(=O)[C@@H](CC(C)C)NC(=O)[C@H](CCC(=O)O)NC(=O)[C@@H]2C[C@@H](O)CN2C(=O)[C@H](Cc2c[nH]c3ccc(Cl)cc23)NC(=O)[C@H](Cc2c[nH]c3ccccc23)NC(=O)[C@H](CC(=O)O)NC(=O)CCC(=O)NCCCOCCOCCOCCCNC(=O)CN2CCN3CCN4CCN(CC2)CC(=O)[O][Lu]([O]C(=O)C3)[O]C(=O)C4)CSCc2cccc(c2)CSCCNC1=O` [GIP-159, LuDOTA-Ttds-Asp-Trp-5Clw-Hyp-Glu-leu-[Cys(3MeBn)-Aib-Leu-Ile-AET]] ({X13-Suc}-DW[Trp(5-Cl)][Hyp]E[dL]C[Aib]LI; linker 7-C via X7) the figure was under 10 nM; with `CC[C@H](C)[C@@H]1NC(=O)[C@H](CC(C)C)NC(=O)C(C)(C)NC(=O)[C@@H](NC(=O)[C@@H](CC(C)C)NC(=O)[C@H](CCC(=O)O)NC(=O)CN(C)C(=O)[C@H](Cc2c[nH]c3ccc(Cl)cc23)NC(=O)[C@H](Cc2c[nH]c3ccccc23)NC(=O)[C@H](CC(=O)O)NC(=O)CCC(=O)NCCCOCCOCCOCCCNC(=O)CN2CCN3CCN4CCN(CC2)CC(=O)[O][Lu]([O]C(=O)C3)[O]C(=O)C4)CSCc2cccc(c2)CSCCNC1=O` [GIP-160, LuDOTA-Ttds-Asp-Trp-5Clw-Nmg-Glu-leu-[Cys(3MeBn)-Aib-Leu-Ile-AET]] ({X13-Suc}-DW[Trp(5-Cl)][Sar]E[dL]C[Aib]LI; linker 7-C via X7), under 10 nM; with `CC[C@H](C)[C@@H]1NC(=O)[C@H](CC(C)C)NC(=O)C(C)(C)NC(=O)[C@@H](NC(=O)[C@@H](CC(C)C)NC(=O)[C@H](CCC(=O)O)NC(=O)[C@@H]2CCCN2C(=O)[C@H](Cc2c[nH]c3ccc(Cl)cc23)NC(=O)[C@H](Cc2c[nH]c3ccccc23)NC(=O)[C@H](CC(=O)O)NC(=O)CN2CCC(NC(=O)CN3CCN4CCN5CCN(CC3)CC(=O)[O][Lu]([O]C(=O)C4)[O]C(=O)C5)CC2)CSCc2cccc(c2)CSCCNC1=O` [GIP-161, LuDOTA-APAc-Asp-Trp-5Clw-Pro-Glu-leu-[Cys(3MeBn)-Aib-Leu-Ile-AET]] ({DOTA(Lu)}-[X1]DW[Trp(5-Cl)]PE[dL]C[Aib]LI; linker 8-C via X7), under 10 nM.
